# Assay results reported in patent US12662473B2, “Inhibitors for programmed cell necrosis and preparation method therefor and use thereof” (SHANGHAI INSTITUTE OF ORGANIC CHEMISTRY, CHINESE ACADEMY OF …, priority 2019, dated 2026).
# Read-outs that look alike come from different tables or passages of the source.
# Experiments:
# FADD−/− Jurkat cells = test: TNF-induced programmed cell necrosis inhibition, Cell Titer-Glo viability; type: cell-based
# Excerpt: (§1) The adopted biological assay protocol was: the programmed necroptosis effect of compounds on TNF-induced in FADD (Fas-Associated Death Domain) deficient Jurkat cells and L929 cells.
# (§2) In order to verify the inhibitory effect of the compounds of the present invention on programmed cell necrosis at the cellular level, cell types closely related to the RIP1 pathway, namely FADD deficient Jurkat cells (human peripheral blood leukemia T cell line) and L929 cells, were selected. Two different stimulation methods were used: tumor necrosis factor (TNFα) used alone, or TNFα used in combination with mitochondria-derived cysteine aspartate activator (SMAC). Cells viability was calculated by detecting chemiluminescence values, and the biological activity of the compound for inhibiting programmed cell necrosis can be obtained.
# (§3) Methods: FADD deficient Jurkat cells: FADD deficient Jurkat cells (human peripheral blood leukemia T cell line) were cultured in vitro. After growing to the logarithmic growth phase, the cells were collected, centrifuged at 1000 rpm for 5 min, the supernatant was discarded, and the cell concentration was adjusted to 2.5×10^5/mL. Cells were seeded into 384-well plates, 40 μl per well. 5 μL of Smac (50 nM) diluted in cell culture medium and 5 μL of each compound were added to the corresponding wells. After pretreatment at 37° C. for 1 h, 5 μL of TNFα (50 ng/mL) diluted in cell culture medium was added to each well of the stimulation group, and 5 μL of the culture medium was added to the control group. The plate was cultured in a cell incubator (37° C., 5% CO2) for 14 h, and 15 μl of Cell Titer-Glo solution was added to each well, then incubated for 30 min at room temperature, and intracellular ATP level was measured by detecting luminescence. The unstimulated DMSO control wells were taken as 100% cell viability. L929 cells: The L929 cells (mouse fibroblasts) were cultured in vitro, digested and diluted to 6.25×10^4/ml, and the cells were seeded into 384-well plates, 40 μl per well. The plate was placed in a cell incubator (37° C., 5% CO2) for 12 hours. 5 μL of Smac (500 nM) diluted in cell culture medium and 5 μL of each compound were added to the corresponding wells. After pretreatment at 37° C. for 1 h, 5 μL of TNFα (500 ng/mL) diluted in cell culture medium was added to each well of the stimulation group, and 5 μL of the culture medium was added to the control group. After the plate was cultured for 14 h in a cell incubator (37° C., 5% CO2), 15 μl of Cell Titer-Glo solution was added to each well. The plate was incubated at room temperature for 30 min, and intracellular ATP level was measured by detecting luminescence. The unstimulated DMSO control wells were taken as 100% cell viability. EC50 values of the compounds were calculated using Prism Graphpad statistical software.
# FADD deficient Jurkat cells: FADD deficient Jurkat cells (human peripheral blood leukemia T cell line) were cultured in vitro. After growing to the logarithmic growth phase, the cells were collected, centrifuged at 1000 rpm for 5 min, the supernatant was discarded, and the cell concentration was adjusted to 2.5×10^5/mL. Cells were seeded into 384-well plates, 40 μl per well. 5 μL of Smac (50 nM) diluted in cell culture medium and 5 μL of each compound were added to the corresponding wells. After pretreatment at 37° C. for 1 h, 5 μL of TNFα (50 ng/mL) diluted in cell culture medium was added to each well of the stimulation group, and 5 μL of the culture medium was added to the control group. After the plate was cultured in a cell incubator (37° C., 5% CO2) for 14 h, 15 μl of Cell Titer-Glo solution was added to each well. The mixture was incubated for 30 min at room temperature, and intracellular ATP level was measured by detecting luminescence. The unstimulated DMSO control wells were taken as 100% cell viability.
# L929 cells = test: as above; type: cell-based, mouse; conditions: read-out: EC50 inhibitory activity on programmed cell necrosis
# Excerpt: as §1, §2, §3
# L929 cells: The L929 cells (mouse fibroblasts) were cultured in vitro, digested and diluted to 6.25×10^4/ml, and the cells were seeded into 384-well plates, 40 μl per well. The plate was placed in a cell incubator (37° C., 5% CO2) for 12 hours. 5 μL of Smac (500 nM) diluted in cell culture medium and 5 μL of each compound were added to the corresponding wells. After pretreatment at 37° C. for 1 h, 5 μL of TNFα (500 ng/mL) diluted in cell culture medium was added to each well of the stimulation group, and 5 μL of the culture medium was added to the control group. After the plate was cultured for 14 h in a cell incubator (37° C., 5% CO2), and 15 μl of Cell Titer-Glo solution was added to each well, then incubated at room temperature for 30 min, and intracellular ATP level was measured by detecting luminescence. The unstimulated DMSO control wells were taken as 100% cell viability.
# [1] = Homo sapiens, Jurkat, 14 h, TNFa + SM164, read-out: EC50 inhibitory activity on programmed cell necrosis
# [2] = Homo sapiens, Jurkat, TNFa, read-out: EC50 inhibitory activity on programmed cell necrosis
# [3] = Mus musculus, L929, 14 h, L929 cells (mouse), TNFa + SM164
# [4] = Mus musculus, L929, L929 cells (mouse), TNFa
# [5] = FADD−/− Jurkat cells (human), TNFa + SM164, read-out: EC50 inhibitory activity on programmed cell necrosis
# [6] = FADD−/− Jurkat cells (human), TNFa, read-out: EC50 inhibitory activity on programmed cell necrosis
Compound,EC50 (FADD−/− Jurkat cells; [1]) [nM],EC50 (FADD−/− Jurkat cells; [2]) [nM],EC50 (L929 cells; [3]) [nM],EC50 (L929 cells; [4]) [nM],EC50 (FADD−/− Jurkat cells; [5]) [nM],EC50 (FADD−/− Jurkat cells; [6]) [nM],"EC50 (L929 cells; L929 cells (mouse), TNFa) [nM]","EC50 (L929 cells; L929 cells (mouse), TNFa + SM164) [nM]","EC50 (L929 cells; Mus musculus, L929, L929 cells (mouse), TNFa + SM164) [nM]"
Cc1noc([C@@H]2CCCN2C(=O)C(C)(C)Oc2ccc3ccccc3c2)n1 [QY-3-28],> 10000,5550,4080,878,–,–,–,–,–
CC(C)(Oc1ccc(Cl)cc1)C(=O)N1CCCC1c1ccccc1 (centres unmarked) [QY-3-29],664,35,157,47,–,–,–,–,–
Cc1noc([C@@H]2CCCN2C(=O)C2(Oc3ccc(Cl)cc3)CC2)n1 [QY-3-35],> 10000,10500,> 10000,160000,–,–,–,–,–
Cc1noc([C@@H]2CCCN2C(=O)C(C)(C)Sc2ccc(Cl)cc2)n1 [QY-3-36],8360,983,9400,2250,–,–,–,–,–
Cc1cccc(C2CCCN2C(=O)C(C)(C)Oc2ccc(Cl)cc2)c1 (centres unmarked) [QY-3-39],5280,712,1480,386,–,–,–,–,–
Cc1noc([C@@H]2CCCN2C(=O)C2(Oc3ccc(Cl)cc3)CCCC2)n1 [QY-3-46],5830,789,> 10000,2010,–,–,–,–,–
CCN(CC)Cc1noc([C@@H]2CCCN2C(=O)C(C)(C)Oc2ccc(Cl)cc2)n1 [QY-3-51],> 10000,59200,> 10000,> 10000,–,–,–,–,–
CN(C)C(=O)c1noc([C@@H]2CCCN2C(=O)C(C)(C)Oc2ccc(Cl)cc2)n1 [QY-3-65],> 10000,> 10000,> 10000,> 10000,–,–,–,–,–
Cc1noc([C@@H]2CCCN2C(=O)C(C)(C)Oc2ccc(Cl)cc2Cl)n1 [QY-3-81],1960,326,2720,704,–,–,–,–,–
Cc1noc([C@@H]2CCCN2C(=O)C(C)(C)N(C)c2ccc(Cl)cc2)n1 [QY-3-86],8680,13500,> 10000,> 10000,–,–,–,–,–
Cc1noc([C@@H]2CCCN2C(=O)C(C)(C)Oc2ccc(Cl)cc2C)n1 [QY-3-94],–,–,5220,–,2960,516,1410,–,–
COc1cc(Cl)ccc1OC(C)(C)C(=O)N1CCC[C@H]1c1nc(C)no1 [QY-3-95],1140,102,1000,135,–,–,–,–,–
Cc1noc([C@@H]2CCCN2C(=O)C(C)(C)Oc2ccc(Cl)cc2C)n1 [QY-3-96],–,–,–,–,9220,2790,> 10000,> 10000,–
"CC(C)(Oc1ccc(Cl)cc1F)C(=O)N1CCCC1c1ccccc1 (centres unmarked) [QY-3-99, 2-(4-Chloro-2-fluorophenoxy)-2-methyl-1-(2-phenylpyrrolidin-1-yl)propan-1-one]",444,61,–,62,–,–,–,–,244
Cc1noc([C@@H]2CCCN2C(=O)C(C)(C)Oc2cc(Cl)c(Cl)cc2Cl)n1 [QY-4-1],> 10000,10300,> 10000,12700,–,–,–,–,–
Cc1noc([C@@H]2CCCN2C(=O)C(C)(C)Oc2c(F)cc(Cl)cc2F)n1 [QY-4-2],7730,1060,16900,3950,–,–,–,–,–
CC(C)(Oc1ccc(Cl)cc1)C(=O)N1CCCC1c1ccc(Cl)cc1 (centres unmarked) [QY-4-6],776,116,292,65,–,–,–,–,–
CC(C)(Oc1ccc(Cl)cc1)C(=O)N1CCCC1c1ccc(F)cc1 (centres unmarked) [QY-4-7],825,126,652,111,–,–,–,–,–
Cn1nnnc1[C@@H]1CCCN1C(=O)C(C)(C)Oc1ccc(Cl)cc1 [QY-4-11],1710,61,> 10000,> 10000,–,–,–,–,–
Cn1nnc([C@@H]2CCCN2C(=O)C(C)(C)Oc2ccc(Cl)cc2)n1 [QY-4-12],5890,607,9530,1610,–,–,–,–,–
Cc1noc([C@@H]2CCCN2C(=O)C(C)(C)Oc2c(F)cc(F)cc2F)n1 [QY-4-14],40600,18000,> 10000,5890,–,–,–,–,–
Cc1ccccc1C1CCCN1C(=O)C(C)(C)Oc1ccc(Cl)cc1 (centres unmarked) [QY-4-27],> 10000,2900,> 10000,3670,–,–,–,–,–
CC(C)(Oc1ccc(Cl)cc1)C(=O)N1CCCC1c1ccccc1Cl (centres unmarked) [QY-4-32],2680,712,1650,520,–,–,–,–,–
CC(C)(Oc1ccc(Cl)cc1)C(=O)N1CCCC1c1cccc(Cl)c1 (centres unmarked) [QY-4-35],> 10000,4090,> 10000,3700,–,–,–,–,–
CC(C)(Oc1ccc(Cl)cc1)C(=O)N1CCCC1c1cccc(F)c1 (centres unmarked) [QY-4-39],1190,274,675,189,–,–,–,–,–
Cc1ccc(C2CCCN2C(=O)C(C)(C)Oc2ccc(Cl)cc2C#N)cc1 (centres unmarked) [QY-4-66],2190,544,1280,392,–,–,–,–,–
